This note sets out measurements from ChEMBL document CHEMBL5042542, “Discovery of Non-Nucleotide Small-Molecule STING Agonists via Chemotype Hybridization” (J Med Chem, 2022).

A value given as a limit tells only on which side of the number the result lay.

Data set [1] in a line: in vitro. To be noted: human, liver microsomes. In general terms: Liver microsomes are a subcellular fraction often used to study metabolism.
Data set [2] is described as follows: in vitro. To be noted: mouse, liver microsomes.
A short description of data set [3]: in vitro. The conditions noted are these: rat, liver microsomes.

As a reminder, the fraction remaining is the share of the starting amount still present when the sample was taken. Read a high fraction remaining as greater stability. Take `CCn1nc(C)cc1C(=O)Nc1nc2cc(C(N)=O)cc(OC)c2n1C/C=C/Cn1c(NC(=O)c2cc(C)nn2CC)nc2cc(C(N)=O)cc(OCCCN3CCOCC3)c21`: the amount remaining at 10 min, 0.5 µM was 22% in “in vitro [1]”, greater than 100% in the data set “in vitro [2]” and 81% in the data set “in vitro [3]”.
In the same order, the values of `O=C(O)c1ccc2cc(CNC(=O)c3cnn4cccnc34)oc2c1` are 100%, 100% and 100%.
In the same order, the values of `O=C(O)c1cccc2cc(Cn3ccc4ccncc4c3=O)oc12` are 98%, 96% and 100%.
In the same order, the values of `O=C(NCc1cc2cc(Cl)c3oc(=O)[nH]c(=O)c3c2o1)c1cnn2cccnc12` are 54%, 57% and 69%.
Consider `O=C(O)c1c(O)c(Cl)cc2cc(CNC(=O)c3cnn4cccnc34)oc12`, for which the amount remaining at 10 min, 0.5 µM in the data set “in vitro [1]” was determined as 98%; in the data set “in vitro [2]” it was 93%; in “in vitro [3]”, 88%.
In the same order, the values of `O=C(O)c1ccc2oc(CNC(=O)c3cnn4cccnc34)cc2c1` are 100%, 88% and 100%.
In the same order, the values of `O=C(O)c1c(F)ccc2cc(CNC(=O)c3cnn4cccnc34)oc12` are 98%, 92% and 91%.
In the same order, the values of `O=C(O)c1cc(Cl)cc2cc(CNC(=O)c3cnn4cccnc34)oc12` are 100%, 100% and 100%.
`O=C(NCc1cc2cc(Cl)cc(-c3nn[nH]n3)c2o1)c1cnn2cccnc12`: the fraction remaining at 10 min, 0.5 µM in the data set “in vitro [1]” turned out to be 96%; in “in vitro [2]”, 80%; in “in vitro [3]”, 89%.
As to `O=C(O)c1cccc2c(Cl)c(CNC(=O)c3cnn4cccnc34)oc12`, the share remaining at 10 min, 0.5 µM in “in vitro [1]” was found to be 99%; in the data set “in vitro [2]”, 85%; in the data set “in vitro [3]”, 91%.
The corresponding values for `COC(=O)c1cccc2cc(CN3Cc4ccncc4C3=O)oc12` are 0%, 11% and 7%.
The corresponding values for `O=C(O)c1cccc2cc(CNC(=O)c3cnn4cccnc34)oc12` are 94%, 97% and 96%.
In the same order, the values of `O=C(NCc1cc2cc(Cl)cc(C(=O)O)c2o1)c1cncc2cccnc12` are 92%, 65% and 64%.
Consider `Cn1c(CNC(=O)c2cnn3cccnc23)nc2c(C(=O)O)cccc21`, for which the fraction remaining at 10 min, 0.5 µM was found to be 95% in the data set “in vitro [1]”, 85% in the data set “in vitro [2]” and 89% in the data set “in vitro [3]”.
In the same order, the values of `C[C@H](NC(=O)c1cnn2cccnc12)c1cc2cc(Cl)cc(C(=O)O)c2o1` are 100%, 100% and 94%.
In the same order, the values of `Cc1ccc2c(=O)c3cccc(CC(=O)O)c3oc2c1C` [VADIMEZAN] are 100%, 89% and 100%.
